Test results as given in publication PMC4479019, “Atomistic design of microbial opsin-based blue-shifted optogenetics tools” (Nature Communications, 2015).

How the values were obtained:
Experiment in all cases: absorption spectrum of purified protein
Format in all cases: binding
Conditions in all cases: covalent (protonated Schiff base); 1 M NaCl, 0.05% DDM, pH 7.0
[1] = molecular target: T1, GR (Gloeobacter violaceus, UniProt Q7NP59)
T1 construct: gene gll0198
T1 sequence (Q7NP59 1-298): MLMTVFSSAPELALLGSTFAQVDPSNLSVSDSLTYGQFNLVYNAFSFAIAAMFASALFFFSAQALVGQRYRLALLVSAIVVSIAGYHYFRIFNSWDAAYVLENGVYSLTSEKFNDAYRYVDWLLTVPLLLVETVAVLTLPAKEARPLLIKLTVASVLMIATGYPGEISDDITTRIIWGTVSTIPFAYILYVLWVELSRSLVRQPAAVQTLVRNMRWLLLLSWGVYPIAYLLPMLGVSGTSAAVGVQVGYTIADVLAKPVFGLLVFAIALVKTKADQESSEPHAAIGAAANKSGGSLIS

[2] = molecular target: T2, HwBR (Haloquadratum walsbyi, UniProt Q18DH8)
T2 construct: gene bop1
T2 sequence (Q18DH8 7-254): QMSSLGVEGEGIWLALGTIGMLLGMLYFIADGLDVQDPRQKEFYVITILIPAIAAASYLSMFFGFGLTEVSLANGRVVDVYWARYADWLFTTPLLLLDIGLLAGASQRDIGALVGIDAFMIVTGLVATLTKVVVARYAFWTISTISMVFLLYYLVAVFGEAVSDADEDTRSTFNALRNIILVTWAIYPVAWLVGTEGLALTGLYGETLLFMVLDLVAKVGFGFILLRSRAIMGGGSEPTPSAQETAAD

[3] = molecular target: T3, AR3 (archaerhodopsin-3) (Halorubrum sodomense, UniProt P96787, M128A/G132A/S151G/A225T)
T3 construct: gene aop3
T3 sequence (P96787 7-258 M128A/G132A/S151G/A225T): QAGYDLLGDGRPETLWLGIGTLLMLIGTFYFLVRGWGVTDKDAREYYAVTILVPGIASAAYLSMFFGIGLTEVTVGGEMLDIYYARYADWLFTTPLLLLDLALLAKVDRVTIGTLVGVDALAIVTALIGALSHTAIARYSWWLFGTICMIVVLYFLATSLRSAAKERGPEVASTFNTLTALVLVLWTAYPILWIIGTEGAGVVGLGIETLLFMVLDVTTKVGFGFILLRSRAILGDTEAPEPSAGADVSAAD

SMILES: CC1=C(/C=C/C(C)=C/C=C/C(C)=C/C=O)C(C)(C)CCC1 [all-trans retinal]
- absorption spectrum of purified protein [1]: Absorption spectra of wild-type and colour variants of HwBR (a) and GR (b)
- absorption spectrum of purified protein [2]: Absorption spectra of wild-type and colour variants of HwBR (a) and GR (b)
- absorption spectrum of purified protein [3]: The M128A/G132A/S151G/A225T and M128A/S151A/A225T mutants slightly reduced the shifts
